Literature values, collected in patent US10028917B2, “Beclomethasone dipropionate compositions in modified-release gastro-resistant microspheres and process for obtaining them” (SOFAR SPA, priority 2010, dated 2018).

Conditions: relative to hydrocortisone

In the case of CCC(=O)OCC(=O)[C@@]1(OC(=O)CC)[C@@H](C)C[C@H]2[C@@H]3CCC4=CC(=O)C=C[C@]4(C)[C@@]3(Cl)[C@@H](O)C[C@@]21C [BDP, Beclomethasone dipropionate], the “times more powerful than hydrocortisone” value is given as 500 times.
